Holding throughout (format): functional
Test [1] relates to Escherichia coli. Briefly: Antibacterial activity against Escherichia coli isolate ARL06-39 harboring beta-lactamase CMY 30 by broth microdilution method. In general terms: Broth dilution looks for growth in wells or tubes with falling amounts of substance.
In test [2] the test system is Escherichia coli. Briefly: Antibacterial activity against Escherichia coli isolate ARL04-413 harboring beta-lactamase CMY 2 by broth microdilution method.
The test system of test [3] is Escherichia coli. Description: Antibacterial activity against Escherichia coli isolate ARL05-705 harboring beta-lactamase CMY 7 by broth microdilution method.
For test [4], the system named is Escherichia coli. Briefly: Antibacterial activity against Escherichia coli isolate ARL05-909 harboring beta-lactamase CMY 29 by broth microdilution method.

In brackets after ≈: the same amount, converted by molar mass.

One may read the MIC as the lowest concentration that inhibits growth of the organism. A low value points to greater potency. As to `C[C@@H](O)[C@H]1C(=O)N2C(C(=O)O)=C(S[C@@H]3CN[C@H](C(=O)N(C)C)C3)[C@H](C)[C@H]12` [MEROPENEM], the MIC in test [1], in test [2], in test [3] and in test [4] was at most 0.12 µg/mL each time.
In the case of `CO[C@@]1(NC(=O)Cc2cccs2)C(=O)N2C(C(=O)O)=C(COC(N)=O)CS[C@@H]21` [CEFOXITIN], the MIC in test [1] was 128 µg/mL (≈ 299 µM); in test [2], at least 256 µg/mL; in test [3] it was 64 µg/mL (≈ 150 µM); in test [4] it was at least 256 µg/mL.
On to `CC(C)(O/N=C(\C(=O)N[C@@H]1C(=O)N2C(C(=O)[O-])=C(C[n+]3ccccc3)CS[C@H]12)c1csc(N)n1)C(=O)O` [CEFTAZIDIME], for which the MIC is 32 µg/mL (≈ 58.5 µM) in test [1], 64 µg/mL (≈ 117 µM) in test [2], 64 µg/mL (≈ 117 µM) in test [3] and at least 128 µg/mL in test [4].
Take `CO/N=C(\C(=O)N[C@@H]1C(=O)N2C(C(=O)[O-])=C(C[N+]3(C)CCCC3)CS[C@H]12)c1csc(N)n1` [CEFEPIME]: the MIC was determined as 0.5 µg/mL (≈ 1.04 µM) in test [1], 0.25 µg/mL (≈ 0.52 µM) in test [2], 0.25 µg/mL (≈ 0.52 µM) in test [3] and 1 µg/mL (≈ 2.08 µM) in test [4].
Consider `C[C@@H](O)[C@H]1C(=O)N2C(C(=O)O)=C(SCCNC=N)C[C@H]12` [IMIPENEM ANHYDROUS], for which the MIC in test [1] is 0.5 µg/mL (≈ 1.67 µM); in test [2], 0.25 µg/mL (≈ 0.835 µM); in test [3] it was 0.5 µg/mL (≈ 1.67 µM); in test [4], 0.5 µg/mL (≈ 1.67 µM).
For the compound `CO/N=C(\C(=O)N[C@@H]1C(=O)N2C(C(=O)O)=C(CSc3nc(=O)c(O)nn3C)CS[C@H]12)c1csc(N)n1` [CEFTRIAXONE], the MIC in test [1] worked out at 32 µg/mL (≈ 57.7 µM); in test [2], 32 µg/mL (≈ 57.7 µM); in test [3] it was 32 µg/mL (≈ 57.7 µM); in test [4], 128 µg/mL (≈ 231 µM).

(Values after ChEMBL document CHEMBL1649507, “CMY-29 and CMY-30, two novel plasmid-mediated AmpC beta-lactamases” (2009).)
